Assay results published in the supplement of paper PMC10307832.

Key:
Assay in all cases: relative viability (nuclei count vs DMSO), 5 days (fraction); higher = more cells survive
[1] = compound: C1CC1C(=O)NC2=NNC3=C2C=CC(=C3)C4=CC(=CC=C4)C(=O)NC5CC5 [XMD13-2] + CC1(C)CCC(c2ccc(Cl)cc2)=C(CN2CCN(c3ccc(C(=O)NS(=O)(=O)c4ccc(N[C@H](CCN5CCOCC5)CSc5ccccc5)c(S(=O)(=O)C(F)(F)F)c4)cc3)CC2)C1 [Navitoclax] (partner 0.5 µM)
Method in brief: (§1)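 Lung cancer cell lines in 1536-well plates got either a single drug or a fixed anchor-drug dose together with five library-drug doses (not always all listed) in √10 steps, by pin tool, on the day after seeding. Nuclei were counted after 5 days, and relative viability is the treated-to-vehicle ratio of nuclei counts. Values are medians of duplicate plates.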

[2] = compound: C1CC1C(=O)NC2=NNC3=C2C=CC(=C3)C4=CC(=CC=C4)C(=O)NC5CC5 [XMD13-2] + Cc1cc(Nc2cc(N3CCN(C)CC3)nc(Sc3ccc(NC(=O)C4CC4)cc3)n2)n[nH]1 [Tozasertib] (partner 0.1 µM)
Method in brief: as §1

[3] = compound: Cc1ccc(C(=O)Nc2cccc(C(F)(F)F)c2)cc1Nc1cncc(C(N)=O)c1 [ALW-II-49-7] + COc1cccc2cc(-c3nc([C@H]4CC[C@H](C(=O)O)CC4)n4ncnc(N)c34)[nH]c12 [OSI-027] (partner 0.5 µM)
Method in brief: as §1

[4] = compound: Cc1nc(Nc2ncc(C(=O)Nc3c(C)cccc3Cl)s2)cc(N2CCN(CCO)CC2)n1 [Dasatinib] + NC(=O)Nc1cc(-c2cccc(F)c2)sc1C(=O)N[C@H]1CCCNC1 [AZD7762] (partner 0.2 µM)
Method in brief: as §1

Row | Cell Line | relative viability ([1]; first compound 0.05 µM) | relative viability ([1]; first compound 0.1581 µM) | relative viability ([1]; first compound 0.5 µM) | relative viability ([1]; first compound 1.581 µM) | relative viability ([1]; first compound 5 µM) | relative viability ([2]; first compound 0.05 µM) | relative viability ([2]; first compound 0.1581 µM) | relative viability ([2]; first compound 0.5 µM) | relative viability ([2]; first compound 1.581 µM) | relative viability ([2]; first compound 5 µM) | relative viability ([3]; first compound 0.08 µM) | relative viability ([3]; first compound 0.253 µM) | relative viability ([3]; first compound 0.8 µM) | relative viability ([3]; first compound 2.53 µM) | relative viability ([3]; first compound 8 µM) | relative viability ([4]; first compound 0.005 µM) | relative viability ([4]; first compound 0.01581 µM) | relative viability ([4]; first compound 0.05 µM) | relative viability ([4]; first compound 0.1581 µM) | relative viability ([4]; first compound 0.5 µM)
1 | NCI-H23 | 1.02 | 0.767 | 0.822 | 0.78 | 0.82 | 0.325 | 0.382 | 0.397 | 0.644 | 0.355 | 0.52 | 0.492 | 0.476 | 0.562 | 0.475 | 0.321 | 0.24 | 0.231 | 0.224 | 0.187
2 | NCI-H322M | 1.19 | 1.19 | 1.44 | 1.15 | 1.14 | 0.563 | 0.52 | 0.456 | 0.456 | 0.517 | 0.54 | 0.469 | 0.444 | 0.447 | 0.406 | 0.597 | 0.526 | 0.468 | 0.265 | 0.381
3 | NCI-H441 | 0.93 | 0.685 | 0.715 | 0.615 | 0.762 | 0.808 | 0.652 | 0.608 | 0.591 | 0.53 | 0.657 | 0.57 | 0.867 | 0.48 | 0.466 | 1.27 | 1.01 | 0.904 | 0.723 | 0.364
4 | NCI-H460 | 1.34 | 1.23 | 1.28 | 1.02 | 1.2 | 0.529 | 0.407 | 0.472 | 0.474 | 0.415 | 0.467 | 0.641 | 0.81 | 0.682 | 0.115 | 0.523 | 0.546 | 0.542 | 0.472 | 0.328
5 | NCI-H596 | 0.99 | 0.975 | 0.917 | 0.898 | 1.15 | 0.901 | 0.942 | 0.816 | 0.89 | 1.03 | 0.777 | 0.749 | 0.589 | 0.624 | 0.776 | 0.945 | 0.828 | 0.929 | 0.74 | 0.553
6 | NCI-H647 | 1.21 | 1.08 | 1.23 | 1.15 | 0.735 | 0.585 | 0.265 | 0.176 | 0.229 | 0.135 | 0.665 | 0.736 | 0.495 | 0.434 | 0.619 | 0.468 | 0.399 | 0.141 | 0.114 | 0.155
7 | NCI-H727 | 0.462 | 0.362 | 0.372 | 0.374 | 0.3 | 0.577 | 0.652 | 0.666 | 0.617 | 0.627 | 0.688 | 0.611 | 0.429 | 0.527 | 0.511 | 0.547 | 0.587 | 0.595 | 0.375 | 0.35
8 | NCI-H838 | 1.26 | 1.16 | 1.13 | 1.22 | 1.18 | 0.277 | 0.27 | 0.263 | 0.293 | 0.247 | 0.352 | 0.385 | 0.389 | 0.434 | 0.378 | 0.868 | 0.786 | 0.811 | 0.685 | 0.669
